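In this assay, cells in 96-well plates receive the compound at five concentrations for 48 hours. Endpoints are linearly interpolated between the surrounding concentrations. At the GI50, growth is halved. Definition used: TGI = concentration required for complete inhibition of growth.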
What was measured:
Experiment in all cases: NCI-60 cell line screen, 48 h
786-0 renal = system: 786-0 renal
A498 renal = system: A498 renal
A549 NSCLC = system: A549 NSCLC
ACHN renal = system: ACHN renal
BT-549 breast = system: BT-549 breast
CAKI-1 renal = system: CAKI-1 renal
CCRF-CEM leukemia = system: CCRF-CEM leukemia
COLO 205 colon = system: COLO 205 colon
DU-145 prostate = system: DU-145 prostate
HCC-2998 colon = system: HCC-2998 colon
HCT-116 colon = system: HCT-116 colon
HCT-15 colon = system: HCT-15 colon
HL-60(TB) leukemia = system: HL-60(TB) leukemia
HOP-62 NSCLC = system: HOP-62 NSCLC
HOP-92 NSCLC = system: HOP-92 NSCLC
HS 578T breast = system: HS 578T breast
HT29 colon = system: HT29 colon
IGROV1 ovarian = system: IGROV1 ovarian
K-562 leukemia = system: K-562 leukemia
KM12 colon = system: KM12 colon
LOX IMVI melanoma = system: LOX IMVI melanoma
M14 melanoma = system: M14 melanoma
MALME-3M melanoma = system: MALME-3M melanoma
MCF7 breast = system: MCF7 breast
MDA-MB-231 breast = system: MDA-MB-231 breast
MDA-MB-435 = system: MDA-MB-435
MOLT-4 leukemia = system: MOLT-4 leukemia
NCI-H226 lung = system: NCI-H226 lung
NCI-H23 lung = system: NCI-H23 lung
NCI-H460 lung = system: NCI-H460 lung
NCI-H522 lung = system: NCI-H522 lung
NCI/ADR-RES ovarian = system: NCI/ADR-RES ovarian
OVCAR-3 ovarian = system: OVCAR-3 ovarian
OVCAR-4 ovarian = system: OVCAR-4 ovarian
OVCAR-5 ovarian = system: OVCAR-5 ovarian
OVCAR-8 ovarian = system: OVCAR-8 ovarian
PC-3 prostate = system: PC-3 prostate
RPMI-8226 leukemia = system: RPMI-8226 leukemia
RXF 393 renal = system: RXF 393 renal
SF-268 CNS = system: SF-268 CNS
SF-295 CNS = system: SF-295 CNS
SF-539 CNS = system: SF-539 CNS
SK-MEL-2 melanoma = system: SK-MEL-2 melanoma
SK-MEL-28 melanoma = system: SK-MEL-28 melanoma
SK-MEL-5 melanoma = system: SK-MEL-5 melanoma
SK-OV-3 ovarian = system: SK-OV-3 ovarian
SN12C renal = system: SN12C renal
SNB-19 CNS = system: SNB-19 CNS
SNB-75 CNS = system: SNB-75 CNS
SR leukemia = system: SR leukemia
SW-620 colon = system: SW-620 colon
T-47D breast = system: T-47D breast
TK-10 renal = system: TK-10 renal
U251 CNS = system: U251 CNS
UACC-257 melanoma = system: UACC-257 melanoma
UACC-62 melanoma = system: UACC-62 melanoma
UO-31 renal = system: UO-31 renal

## COC1=CC(c2ccc[nH]2)=N/C1=C\c1[nH]c(C)c(C(=O)CCC(=O)Oc2ccc3c(c2)CCC2C3CC[C@]3(C)C(=O)CC[C@@H]23)c1C (some centres undefined)
786-0 renal
  GI50: 6 µM
  TGI: 39.1 µM
A498 renal
  GI50: 7.94 µM
  TGI: 57.4 µM
A549 NSCLC
  GI50: 2.65 µM
  TGI: > 100 µM
ACHN renal
  GI50: 5.82 µM
  TGI: > 100 µM
BT-549 breast
  GI50: 15.5 µM
  TGI: > 100 µM
CAKI-1 renal
  GI50: 8.77 µM
  TGI: > 100 µM
CCRF-CEM leukemia
  GI50: 0.527 µM
  TGI: > 100 µM
COLO 205 colon
  GI50: 21.5 µM
  TGI: > 100 µM
DU-145 prostate
  GI50: 1.58 µM
  TGI: > 100 µM
HCC-2998 colon
  GI50: 16.8 µM
  TGI: > 96.1 µM
HCT-116 colon
  GI50: 0.773 µM
  TGI: > 100 µM
HCT-15 colon
  GI50: 2.52 µM
  TGI: > 61.8 µM
HL-60(TB) leukemia
  GI50: 50.2 µM
  TGI: > 100 µM
HOP-62 NSCLC
  GI50: 18.2 µM
  TGI: 66 µM
HOP-92 NSCLC
  GI50: 2.09 µM
  TGI: 16.5 µM
HS 578T breast
  GI50: 14.2 µM
  TGI: > 100 µM
HT29 colon
  GI50: 0.839 µM
  TGI: > 100 µM
IGROV1 ovarian
  GI50: 8.3 µM
  TGI: > 100 µM
K-562 leukemia
  GI50: 4.22 µM
  TGI: > 100 µM
KM12 colon
  GI50: 5.6 µM
  TGI: > 100 µM
LOX IMVI melanoma
  GI50: 0.998 µM
  TGI: 3.35 µM
M14 melanoma
  GI50: 12.3 µM
  TGI: 33.4 µM
MALME-3M melanoma
  GI50: 29.2 µM
  TGI: > 100 µM
MCF7 breast
  GI50: 1.91 µM
  TGI: > 49.3 µM
MDA-MB-231 breast
  GI50: 0.276 µM
  TGI: 1.19 µM
MDA-MB-435
  GI50: 7.7 µM
  TGI: > 100 µM
MOLT-4 leukemia
  GI50: 2.71 µM
  TGI: > 100 µM
NCI-H226 lung
  GI50: 10.9 µM
  TGI: > 58.6 µM
NCI-H23 lung
  GI50: 9.75 µM
  TGI: > 100 µM
NCI-H460 lung
  GI50: 3.07 µM
  TGI: > 100 µM
NCI-H522 lung
  GI50: 4.71 µM
  TGI: 60.1 µM
NCI/ADR-RES ovarian
  GI50: 12.6 µM
  TGI: > 100 µM
OVCAR-3 ovarian
  GI50: 17.5 µM
  TGI: > 100 µM
OVCAR-4 ovarian
  GI50: 13.1 µM
  TGI: > 100 µM
OVCAR-5 ovarian
  GI50: 7.88 µM
  TGI: > 81.6 µM
OVCAR-8 ovarian
  GI50: 8.37 µM
  TGI: > 100 µM
PC-3 prostate
  GI50: 6.52 µM
  TGI: > 100 µM
RPMI-8226 leukemia
  GI50: 5.85 µM
  TGI: > 100 µM
RXF 393 renal
  GI50: 11.7 µM
  TGI: > 87.4 µM
SF-268 CNS
  GI50: 5.58 µM
  TGI: > 100 µM
SF-295 CNS
  GI50: 21.4 µM
  TGI: 85.3 µM
SF-539 CNS
  GI50: 14.3 µM
  TGI: > 100 µM
SK-MEL-2 melanoma
  GI50: 15.6 µM
  TGI: 58.7 µM
SK-MEL-28 melanoma
  GI50: > 70.9 µM
  TGI: > 100 µM
SK-MEL-5 melanoma
  GI50: 3.48 µM
  TGI: 19.6 µM
SK-OV-3 ovarian
  GI50: > 100 µM
  TGI: > 100 µM
SN12C renal
  GI50: 5.23 µM
  TGI: > 100 µM
SNB-19 CNS
  GI50: 17.7 µM
  TGI: > 100 µM
SNB-75 CNS
  GI50: > 42.7 µM
  TGI: > 96.6 µM
SR leukemia
  GI50: 0.634 µM
  TGI: > 100 µM
SW-620 colon
  GI50: 0.773 µM
  TGI: > 37.9 µM
T-47D breast
  GI50: 13.9 µM
  TGI: > 100 µM
TK-10 renal
  GI50: 25.2 µM
  TGI: > 92 µM
U251 CNS
  GI50: 3.31 µM
  TGI: > 86.7 µM
UACC-257 melanoma
  GI50: 97.6 µM
  TGI: > 100 µM
UACC-62 melanoma
  GI50: 3.71 µM
  TGI: 17.9 µM
UO-31 renal
  GI50: 3.95 µM
  TGI: 30 µM

Source: PubChem BioAssay (NCI)
